Results as given in PMC11858513, “Antibiofilm Activities of Tritrpticin Analogs Against Pathogenic Pseudomonas aeruginosa PA01 Strains” (Molecules, 2025).
In brackets after ≈: the same amount, converted by molar mass. Residues, ends and D or L forms follow the SMILES beside them.

Experiments:
P. aeruginosa PAO1 GFP [1] = assay: MBEC, biofilm eradication, GFP fluorescence method; assay type: cell-based, Pseudomonas aeruginosa; conditions: Table 2, BM2 medium, mean of three biological replicates
Procedure: (§1) Figure 1 The MIC (A), MBIC (B) and MBEC (C) values for the tritrpticin analog peptides were assessed against Pa PAO1 GFP. The MIC values were determined by measuring the absorbance of bacterial cells at 600 nm. The MBIC and MBEC values were determined by recording the fluorescence at 480 nm and 530 nm from the biofilms of GFP-expressing PAO1. Three biological replicates were run for each test sample, and the mean was calculated for the recorded absorption or fluorescence values. In the graphs, the error bars represent the standard deviation (±SD).
(§2) Figure 2 The MIC (A), MBIC (B) and MBEC (C) values for the tritrpticin-Lys derivative peptides were assessed against Pa PAO1 GFP. The MIC values were determined by measuring the absorbance of bacterial cells at 600 nm. The MBIC and MBEC values were determined by recording the fluorescence at 480 nm and 530 nm from the biofilms of GFP-expressing PAO1. Three replicates were run for each sample, the values were averaged and the error bars represent the standard deviation (±SD).
(§3) The methods to determine the MIC, MBIC and MBEC have been described in detail in our previous publication. The green fluorescent protein (GFP)-producing P. aeruginosa and S. aureus strains that were used in this work were also described in the earlier publication. Fluorescence detection was used as the main method to estimate the number of cells entrapped in the biofilm matrix. The methodology used for evaluation of the antibiofilm properties against an original Pseudomonas PA01 strain by crystal violet dye staining and the use of the Calgary biofilm device has been described elsewhere. The regular PA01 strain was provided by Dr. J. Harrison, Calgary. All measurements were carried out on an Eppendorf AF2200 plate reader. Every 96-well plate included controls for bacterial cell growth without peptide treatment and media alone. All measurements were carried out in triplicate, and the values in the figures represent the average and the error bars are standard deviation.

S. aureus GFP [2] = assay type: cell-based, Staphylococcus aureus; conditions: Table 4; Sa GFP; lowest concentration of peptide with no bacterial growth seen on the spot agar plate
Description: as §3

S. aureus GFP [3] = assay: MIC against planktonic cells, absorbance at 600 nm; assay type: cell-based, Staphylococcus aureus; conditions: Table 4; Sa GFP, 10% TSB and 0.1% glucose; absorbance 600 nm; mean of three biological replicates
Procedure: as §1, with “3” for “1”, “Sa” for “Pa PAO1”, “Sa.” for “PAO1.”
as §3

P. aeruginosa PAO1 [4] = assay type: cell-based, Pseudomonas aeruginosa; conditions: Table 5; PAO1, 1x BM2; biofilms on pegs, cells plated and counted; three biological replicates
Procedure: (§4) We note the close agreement with the MBIC and MBEC values determined by the fluorescence and CV methods, similar to what we found in our previous work for an S. aureus MRSA strain [23]. We also re-evaluated the MBEC values that are measured using the Calgary biofilm device (CBD), where biofilms form on pegs, rather than at the bottom of the 96-well plates. […] In particular, we find that the single Pro9Ala Tritrp-P9A-substituted version has better MIC, MBIC and MBEC activities than the parent peptide as well as the Tritrp-P59A analog with both prolines substituted to Ala.
Figure 5 The MBEC values for the peptides were assessed against P. aeruginosa PAO1 in the presence of 1× BM2 medium. The eradication of biofilm cells was determined for the peptides using the counting of biofilm cells formed by Pa PAO1. Three biological replicates were run for each test sample, and the mean was calculated for counted cell values. Data points with error bars indicate the standard deviation (±SD).
as §3

P. aeruginosa PAO1 GFP [5] = assay: MIC against planktonic cells, absorbance at 600 nm; assay type: cell-based, Pseudomonas aeruginosa; conditions: Table 2, BM2 medium, absorbance 600 nm, mean of three biological replicates
Procedure: as §1, §2, §3

P. aeruginosa PAO1 GFP [6] = assay: MBIC, prevention of biofilm formation, GFP fluorescence method; assay type: cell-based, Pseudomonas aeruginosa; conditions: Table 2, BM2 medium, mean of three biological replicates
Procedure: as §1, §2, §3

S. aureus GFP [7] = assay: MBEC, GFP fluorescence method; assay type: cell-based, Staphylococcus aureus; conditions: Table 4, Sa GFP, 10% TSB and 0.1% glucose, mean of three biological replicates
Procedure: as §1, with “3” for “1”, “Sa” for “Pa PAO1”, “Sa.” for “PAO1.”
as §3

P. aeruginosa PAO1 [8] = assay type: cell-based; conditions: Table 5, PAO1, 1x BM2, crystal violet at 595 nm, mean of three biological replicates
Procedure: as §4
Figure 4 The MIC (A), MBIC (B) and MBRC (C) values for the peptides were assessed against P. aeruginosa PAO1 in the presence of 1× BM2. The inhibition of planktonic cells, the inhibition of biofilm cells and the reduction in biofilm cells were determined for the peptides by recording of the planktonic cells at 600 nm and quantification of biofilms formed by Pa PAO1 using crystal violet at 595 nm, respectively. Three biological replicates were run for each test sample, and the mean was calculated for the recorded absorption values. Data points with error bars indicate the standard deviation (±SD).
Figure 6 The MIC (A), MBIC (B) and MBEC (C) values for the tritrpticin-Lys derivatives against P. aeruginosa PAO1 were assessed by the crystal violet (CV) assay for the measurement of inhibition of biofilm formation and eradication of biofilm cells, respectively. The biofilm cells were rinsed, stained with 0.1% crystal violet for 15 min and then rinsed again. The CV was released from biofilm cells by the addition of 95% ethanol and quantified by reading on a spectrometer at 595 nm. Three replicates were run for each sample, the values were averaged and the error bars represent the standard deviation (±SD).
as §3

S. aureus GFP [9] = assay: MBIC, GFP fluorescence method; assay type: cell-based, Staphylococcus aureus; conditions: Table 4, Sa GFP, 10% TSB and 0.1% glucose, mean of three biological replicates
Procedure: as §1, with “3” for “1”, “Sa” for “Pa PAO1”, “Sa.” for “PAO1.”
as §3

[10] = minimum biofilm reduction concentration

Row | SMILES | MBEC at 488 and 530 nm LD50 (P. aeruginosa PAO1 GFP [1]) | MBEC at 488 and 530 nm LD90 (P. aeruginosa PAO1 GFP [1]) | MBC Agar Plate (S. aureus GFP [2]) | MIC at 600 nm LD50 (S. aureus GFP [3]) | MIC at 600 nm LD90 (S. aureus GFP [3]) | MBEC from Calgary Biofilm Device (CBD) LD50 (P. aeruginosa PAO1 [4]) | MBEC from Calgary Biofilm Device (CBD) LD90 (P. aeruginosa PAO1 [4]) | MIC at 600 nm LD50 (P. aeruginosa PAO1 GFP [5]) | MIC at 600 nm LD90 (P. aeruginosa PAO1 GFP [5]) | MBIC at 488 and 530 nm LD50 (P. aeruginosa PAO1 GFP [6]) | MBIC at 488 and 530 nm LD90 (P. aeruginosa PAO1 GFP [6]) | MBEC at 488 and 530 nm LD50 (S. aureus GFP [7]) | MBEC at 488 and 530 nm LD90 (S. aureus GFP [7]) | MBIC (CV at 595 nm) LD50 (P. aeruginosa PAO1 [8]) | MBIC (CV at 595 nm) LD90 (P. aeruginosa PAO1 [8]) | MBRC (CV at 595 nm) LD50 (P. aeruginosa PAO1 [8]; [10]) | MBRC (CV at 595 nm) LD90 (P. aeruginosa PAO1 [8]; [10]) | MBIC at 488 and 530 nm LD50 (S. aureus GFP [9]) | MBIC at 488 and 530 nm LD90 (S. aureus GFP [9])
1 | CC[C@H](C)[C@H](N)C(=O)N[C@@H](CC(C)C)C(=O)N1CCC[C@H]1C(=O)N[C@@H](Cc1c[nH]c2ccccc12)C(=O)N[C@@H](CCCCN)C(=O)N[C@@H](Cc1c[nH]c2ccccc12)C(=O)N1CCC[C@H]1C(=O)N[C@@H](Cc1c[nH]c2ccccc12)C(=O)N[C@@H](Cc1c[nH]c2ccccc12)C(=O)N1CCC[C@H]1C(=O)N[C@@H](Cc1c[nH]c2ccccc12)C(=O)N[C@@H](CCCNC(=N)N)C(=O)N[C@@H](CCCNC(=N)N)C(N)=O [Indolicidin, reference compound] | 32 µmol/L | >128 µmol/L | 8 µM (≈ 15.3 µg/mL) | 4 µM (≈ 7.63 µg/mL) | 8 µM (≈ 15.3 µg/mL) | 128 µmol/L | 128 µmol/L | 8 µM (≈ 15.3 µg/mL) | 32 µM (≈ 61 µg/mL) | 8 µmol/L | 32 µmol/L | 2 µmol/L | 8 µmol/L | 32 µmol/L | 32 µmol/L | 64 µmol/L | 64 µmol/L | 4 µmol/L | 8 µmol/L
2 | N=C(N)NCCC[C@H](NC(=O)[C@H](CCCNC(=N)N)NC(=O)[C@@H](N)CCCNC(=N)N)C(=O)N[C@@H](Cc1c[nH]c2ccccc12)C(=O)N[C@@H](Cc1c[nH]c2ccccc12)C(=O)N[C@@H](Cc1c[nH]c2ccccc12)C(N)=O [RRRWWW-NH2] (H-RRRWWW-NH2) | 64 µmol/L | >128 µmol/L | 4 µM (≈ 4.18 µg/mL) | 1 µM (≈ 1.04 µg/mL) | 1 µM (≈ 1.04 µg/mL) |  |  | 32 µM (≈ 33.4 µg/mL) | 128 µM (≈ 134 µg/mL) | 16 µmol/L | 128 µmol/L | 0.5 µmol/L | 4 µmol/L |  |  |  |  | 1 µmol/L | 1 µmol/L
